The values that follow come from US7371555B2, “Polypeptides having α-H-α-amino acid amide racemase activity and nucleic acids encoding the same” (DSM IP Assets B.V., priority 2002, dated 2008).

Experiment [1] concerns CFE from E. coli DH10B/pOa(1)PLV49B10 containing the α-H-α-amino acid amide racemase from O. anthropi IA. The experiment is described as follows: Racemase activity test with DL-2-aminobutyric acid amide and CFE from E. coli DH10B/pOa(1)PLV49B10 (Example 10). In kind it is biochemical, Ochrobactrum anthropi IA. Particulars: Strain A; for Conversion: conversion to the L-acid. As for the experimental part:
Also in this case, E. coli TOP10/pBAD/Myc-HisC was treated in exactly the same way to serve as negative control.
To determine the activity of the CFE from E. coli DH10B/pOa(1)PLV49B10 and E. coli TOP10/pBAD/Myc-HisC, reaction mixtures of 10 ml each were prepared containing 50 mM HEPES-NaOH, pH 8.0, 20 μM pyridoxal-5-phosphate, 0.4 mg/ml BSA, 1 mM dithiothreitol, and 75 mM of DL-2-aminobutyric acid amide. Reactions were started by the addition of 1 ml of the thawed CFE of E. coli DH10B/pOa(1)PLV49B10 or E. coli TOP10/pBAD/Myc-HisC (blank) and were incubated at 37° C. for 21.5 h. At regular time intervals samples of 1 ml were taken and transferred to vials containing 1 ml of MeOH to stop the reaction. Analysis of these samples to determine the concentrations L- and D-2-aminobutyric acid and L- and D-2-aminobutyric acid amide was done by HPLC according to the following protocol. • column: Sumichiral OA5000 from Sumika (150×4.6 mm I.D., 5μ)+guard column • eluent: 4 mM CuSO4 in water • flow: 1 ml/min. • column temp.: 10° C. • inj. volume: 6 μl • detection: fluorescence detection after post-column reaction with o-phthalaldehyde and 2-mercaptoethanol in 0.4 M borate buffer with addition of EDTA (wavelength ex=338 nm and em>420 nm)

The test system of experiment [2] is CFE from E. coli DH10B/pOa(1)PLV49B10 combined with the L-aminopeptidase from Pseudomonas putida ATCC 12633. Description: Racemase activity test with DL-2-aminobutyric acid amide, CFE combined with L-aminopeptidase (Example 11). In kind it is biochemical, Ochrobactrum anthropi IA; Pseudomonas putida ATCC 12633. How it is done: In this experiment, the E. coli DH10B/pOa(1)PLV49B10 CFE from Example 11 was used. It was combined with a preparation containing the L-aminopeptidase from P. putida ATCC 12633. This is the same L-enantioselective enzyme as was used as L-aminopeptidase help solution in the screening of the O. anthropi IA and A. nicotianae NCIMB 41126 gene libraries (Examples 3 and 3A).
(§1) A reaction mixture of 10 ml (total volume including enzyme preparations) was prepared containing 50 mM HEPES-NaOH, pH 8.0, 20 μM pyridoxal-5-phosphate, 0.4 mg/ml BSA, 1 mM dithiothreitol, and 75 mM of DL-2-aminobutyric acid amide. Reaction was started by the addition of 0.4 ml of the thawed CFE of E. coli DH10B/pOa(1)PLV49B10 and 0.17 ml of a solution containing L-aminopeptidase from P. putida ATCC 12633. The reaction mixture was incubated at 37° C. for 18 h. At certain time intervals samples of 1 ml were taken and transferred to vials containing 1 ml of MeOH to stop the reaction. Analysis of these samples to determine the concentrations L- and D-2-aminobutyric acid and L- and D-2-aminobutyric acid amide was done by HPLC according to the protocol of Example 11.

Experiment [3] has the same test system. Description: Racemase activity test with DL-2-amino-5-[1,3]dioxolan-2-yl-pentanoic acid amide, CFE combined with L-aminopeptidase (Example 12). In kind it is biochemical, Ochrobactrum anthropi IA; Pseudomonas putida ATCC 12633. As for the experimental part: as §1
In a very similar set-up, the combined activity of the α-H-α-amino acid amide racemase from O. anthropi IA and the L-aminopeptidase from P. putida ATCC 12633 was determined towards the more complex substrate DL-2-amino-5-[1,3]dioxolan-2-yl-pentanoic acid amide. The molecular structure of this amide can be found in the substrate table in Example 8. In this experiment 1 ml of the thawed CFE from E. coli DH10B/pOa(1)PLV49B10 was used together with 1 ml of a solution containing L-aminopeptidase from P. putida ATCC 12633. Reaction proceeded for 120 hours. Analysis of these samples to determine the concentrations L- and D-2-amino-5-[1,3]dioxolan-2-yl-pentanoic acid and L- and D-2-amino-5-[1,3]dioxolan-2-yl-pentanoic acid amide was done by HPLC according to the following protocol. • column: Crownether Cr(−) (150 mm×4.0 mm ID) • eluent: Perchloric acid in water, pH=1.0 • flow: 1.2 ml/min. • column temp.: 18° C. • inj. volume: 20 μl • detection: fluorescence detection after post-column reaction with o-phthalaldehyde and 2-mercaptoethanol in 0.4 M borate buffer. (wavelength ex=338 nm and em>420 nm)

In experiment [4] the test system is lyophilized O. anthropi IA cells. Description: α-H-α-amino acid amide racemase activity of lyophilized O. anthropi IA cells. In kind it is biochemical, Ochrobactrum anthropi IA. Particulars: control experiment. How it is done:
O. anthropi IA cells were cultivated in Medium A containing DL-α-amino-ε-caprolactam (2 g/l) as sole nitrogen source. After incubation at 28° C. and 200 rpm for three days (OD620 nm=4.7), cells were harvested by centrifugation, washed in 20 mM HEPES-NaOH buffer of pH 7.7 and lyophilized.
The assay mixture consisted of 10 mM HEPES-NaOH buffer (pH 7.7) containing toluene (2,5 v/v %), pyridoxal-5-phosphate (20 μM), D- or L-leucine amide (2.5 m %) and in some cases EDTA (20 mM). Per assay 150 mg of lyophilized cells were used. Chemical blanks (with the assay mixture without the O. anthropi IA cells) were used as a negative control. All reaction mixtures (including the blanks) were incubated for approximately 72 hours at 40° C. before the reaction was stopped by the addition of 9 volumes of 1 M H3PO4. Finally, the reaction mixtures were analyzed by HPLC to determine the concentrations of D- and L-leucine amide and of D- and L-leucine. o-Phthaldehyde in combination with D-3-mercapto-2-methylpropionic acid was used in this HPLC method as a chiral reagent for the enantioseparation of these amino compounds (Duchateau, et al., J. Chromatogr. (1992) 623:237-245).
In a number of reactions EDTA was added to inhibit L- and/or D-specific amidase(s) present in the O. anthropi IA cells.
Without EDTA, amidases convert the substrate and/or product α-H-α-amino acid amides into α-H-α-amino acids thereby preventing direct detection of the other α-H-α-amino acid amide enantiomer as racemization product. […] Formation of L-leucine from D-leucine amide could not be detected in the chemical blank.

Structures are written as SMILES.

In experiment [1] (incubation time 21.5 h), `CC[C@@H](N)C(N)=O` [D-aminobutyric acid amide] showed a Conversion of 85.4%.
As for `CCC(N)C(N)=O` (racemic) [DL-2-aminobutyric acid (Abu) amide, DL-2-aminobutyric acid amide], the D-Abu is recorded as 0.0 mM in experiment [1] (incubation time 0 h); 0.0 mM in experiment [1] (incubation time 0.75 h); 0.0 mM in experiment [1] (incubation time 2 h); 0.1 mM in experiment [1] (incubation time 4.65 h); 0.5 mM in experiment [1] (incubation time 8.25 h); 1.4 mM in experiment [1] (incubation time 21.5 h). In addition, the D-Abu was 0.0 mM in experiment [2] (incubation time 0 h); 0.0 mM in experiment [2] (incubation time 0.5 h); 0.1 mM in experiment [2] (incubation time 1.0 h); 0.0 mM in experiment [2] (incubation time 1.5 h); 0.0 mM in experiment [2] (incubation time 2.0 h); 1.6 mM in experiment [2] (incubation time 18 h). The D-Abu amide in experiment [1] (incubation time 0 h) is 42.3 mM; in experiment [1] (incubation time 0.75 h) it was 39.6 mM; in experiment [1] (incubation time 2 h), 34.7 mM; in experiment [1] (incubation time 4.65 h) it was 20.8 mM; in experiment [1] (incubation time 8.25 h), 12.4 mM; in experiment [1] (incubation time 21.5 h), 6.7 mM. Further, the D-Abu amide is reported as 36.2 mM in experiment [2] (incubation time 0 h); 34.6 mM in experiment [2] (incubation time 0.5 h); 36.4 mM in experiment [2] (incubation time 1.0 h); 33.0 mM in experiment [2] (incubation time 1.5 h); 30.4 mM in experiment [2] (incubation time 2.0 h); 0.4 mM in experiment [2] (incubation time 18 h). The L-Abu is on record as 1.4 mM in experiment [1] (incubation time 0 h); 12.3 mM in experiment [1] (incubation time 0.75 h); 29.1 mM in experiment [1] (incubation time 2 h); 52.3 mM in experiment [1] (incubation time 4.65 h); 64.9 mM in experiment [1] (incubation time 8.25 h); 71.7 mM in experiment [1] (incubation time 21.5 h). For the same molecule, the L-Abu was found to be 0.5 mM in experiment [2] (incubation time 0 h); 11.7 mM in experiment [2] (incubation time 0.5 h); 32.2 mM in experiment [2] (incubation time 1.0 h); 38.5 mM in experiment [2] (incubation time 1.5 h); 41.9 mM in experiment [2] (incubation time 2.0 h); 70.8 mM in experiment [2] (incubation time 18 h). Further, the L-Abu amide is on record as 40.5 mM in experiment [1] (incubation time 0 h); 29.3 mM in experiment [1] (incubation time 0.75 h); 17.8 mM in experiment [1] (incubation time 2 h); 11.5 mM in experiment [1] (incubation time 4.65 h); 8.6 mM in experiment [1] (incubation time 8.25 h); 5.8 mM in experiment [1] (incubation time 21.5 h). Also, the L-Abu amide in experiment [2] (incubation time 0 h) is reported as 34.1 mM; in experiment [2] (incubation time 0.5 h), 22.2 mM; in experiment [2] (incubation time 1.0 h), 7.3 mM; in experiment [2] (incubation time 1.5 h), 2.7 mM; in experiment [2] (incubation time 2.0 h), 1.7 mM; in experiment [2] (incubation time 18 h) it was 0.0 mM. The Conversion in experiment [1] (incubation time 0 h) is recorded as 1.6%; in experiment [1] (incubation time 0.75 h) it was 15.2%; in experiment [1] (incubation time 2 h) it was 35.7%; in experiment [1] (incubation time 4.65 h), 61.8%; in experiment [1] (incubation time 8.25 h) it was 75.1%; in experiment [1] (incubation time 21.5 h), 83.9%. Moreover, the Conversion in experiment [2] (incubation time 0 h) was determined as 0.7%; in experiment [2] (incubation time 0.5 h), 17.1%; in experiment [2] (incubation time 1.0 h), 42.4%; in experiment [2] (incubation time 1.5 h) it was 51.9%; in experiment [2] (incubation time 2.0 h), 56.7%; in experiment [2] (incubation time 18 h), 97.3%.
Consider `NC(=O)C(N)CCCC1OCCO1` (racemic) [DL-2-amino-5-[1,3]dioxolan-2-yl-pentanoic acid amide], for which, in experiment [3] (incubation time 0 h), the Conversion is recorded as 5.6%, the D-Abu came to 0.0 mM, the D-Abu amide is listed as 36.6 mM and the L-Abu turned out to be 4.3 mM. Moreover, the L-Abu amide in experiment [3] (incubation time 0 h) was 36.5 mM. In experiment [3] (incubation time 3.6 h), the Conversion is recorded as 49.5%, the D-Abu turned out to be 0.0 mM, the D-Abu amide came out at 35.7 mM and the L-Abu stood at 37.6 mM. Moreover, the L-Abu amide in experiment [3] (incubation time 3.6 h) is 2.7 mM. In addition, in experiment [3] (incubation time 22.1 h), the Conversion worked out at 56.6%, the D-Abu stood at 0.1 mM, the D-Abu amide is on record as 29.9 mM and the L-Abu is 40.3 mM. For the same molecule, in experiment [3] (incubation time 22.1 h), the L-Abu amide is given as 1.0 mM. In experiment [3] (incubation time 53.2 h), the Conversion is reported as 61.1%, the D-Abu was found to be 0.1 mM, the D-Abu amide is on record as 27.4 mM and the L-Abu stood at 43.5 mM. Also, in experiment [3] (incubation time 53.2 h), the L-Abu amide amounted to 0.1 mM. In experiment [3] (incubation time 120.2 h), the D-Abu amounted to 0.4 mM, the D-Abu amide was 23.7 mM, the L-Abu worked out at 46.0 mM and the L-Abu amide is 0.1 mM.
With `CC(C)C[C@H](N)C(=O)O` [leucine], the racemization of leucine result in experiment [4] is recorded as “did not racemize”.
